Source: publication PMC11995216, “End-to-End Backbone Cyclization Enhances Passive Permeability of bRo5 Oligomeric Depsipeptides with Nonlinear Size Dependence” (ACS Medicinal Chemistry Letters, 2025)
Values joined by “and” are separate entries in the source; they are usually repeats but may differ in a detail not shown here. Equal entries are not always repeated. Where two headings read alike, the source gives them in different places. Starred links: 1 amine or outer side, 2 acyl side, 3 side chain; linkers in the order of their positions; H or OH if unused. Non-standard residues stand in square brackets, D forms with d. Residues, ends and D or L forms follow the SMILES beside them. *: point of attachment. X1 = CCCCC[C@H](O[*:1])C(=O)[*:2]; Ahp(2) = CCCCC[C@H](N)C(=O)O; dNMeA = CN[C@H](C)C(=O)O; Boc = CC(C)(C)OC(=O)*; OBn = c1ccc(CO*)cc1

Assays:
PAMPA [1] = details: UV detection, initial concentration 500 uM
[2] = initial concentration 500 uM, UV detection
[3] = calculated using Supplement Equation 1, UV detection
PAMPA [4] = details: UV detection
[5] = UV detection
[6] = PAMPA
[7] = PAMPA; remark: listed apart in the source

CCCCC[C@H](NC(=O)[C@@H](C)N(C)C(=O)[C@H](CCCCC)OC(=O)[C@@H](C)N(C)C(=O)[C@H](CCCCC)NC(=O)[C@@H](C)N(C)C(=O)[C@H](CCCCC)OC(=O)[C@@H](C)N(C)C(=O)OC(C)(C)C)C(=O)OCc1ccccc1 [Compound L2.3] (Boc-[dNMeA][X1][dNMeA][Ahp(2)][dNMeA][X1][dNMeA][Ahp(2)]-OBn) gave an Acceptor Concentration (PAMPA [1]; Acceptor Concentration (uM) / [row 1]) of 89.6 µM, an Acceptor Concentration (PAMPA [1]; Acceptor Concentration (uM) / [row 2]) of 71.9 µM and an Acceptor Concentration (PAMPA [1]; Acceptor Concentration (uM) / [row 3]) of 75.1 µM. For the same molecule, the Acceptor Concentration (PAMPA [1]; Acceptor Concentration (uM) / [row 4]) was 81.3 µM, the Acceptor Concentration (PAMPA [1]; Acceptor Concentration (uM) / [row 5]) was 83.9 µM and the Acceptor Concentration (PAMPA [1]; Acceptor Concentration (uM) / [row 6]) was 71.2 µM. For the same molecule, the Acceptor Concentration (PAMPA [1]; Acceptor Concentration (uM) / [row 7]) was 69.7 µM, the Acceptor Concentration (PAMPA [1]; Acceptor Concentration (uM) / [row 8]) was 66.2 µM and the Acceptor Concentration (PAMPA [1]; Acceptor Concentration (uM) / [row 9]) was 69.9 µM. For the same molecule, the Acceptor Concentration (PAMPA [1]; Acceptor Concentration (uM) / [row 10]) was 69 µM, the donor concentration after incubation ([2]; Well 1 / [donor], Well 1) was 388 µM and 369 µM and the donor concentration after incubation ([2]; Well 2 / [donor], Well 2) was 382 µM and 380 µM. For the same molecule, the donor concentration after incubation ([2]; Well 3 / [donor], Well 3) was 369 µM and 377 µM, the donor concentration after incubation ([2]; Well 4 / [donor], Well 4) was 380 µM and 370 µM and the donor concentration after incubation ([2]; Well 5 / [donor], Well 5) was 353 µM and 358 µM. For the same molecule, the %T ([3]; Well 1 / %T, Well 1) was 0.55% and 0.49%, the %T ([3]; Well 2 / %T, Well 2) was 0.56% and 0.52% and the %T ([3]; Well 3 / %T, Well 3) was 0.52% and 0.55%. The %T ([3]; Well 4 / %T, Well 4) was 0.5% and 0.53%, the %T ([3]; Well 5 / %T, Well 5) was 0.54% and 0.53% and the Papp (PAMPA [4]; Papp (x 10^-6 cm/s) / [row 1]) was 3.76 ×10⁻⁶ cm/s. The Papp (PAMPA [4]; Papp (x 10^-6 cm/s) / [row 2]) was 3.12 ×10⁻⁶ cm/s, the Papp (PAMPA [4]; Papp (x 10^-6 cm/s) / [row 3]) was 3.36 ×10⁻⁶ cm/s and the Papp (PAMPA [4]; Papp (x 10^-6 cm/s) / [row 4]) was 3.52 ×10⁻⁶ cm/s. It also gave a Papp (PAMPA [4]; Papp (x 10^-6 cm/s) / [row 5]) of 3.88 ×10⁻⁶ cm/s, a Papp (PAMPA [4]; Papp (x 10^-6 cm/s) / [row 6]) of 3.19 ×10⁻⁶ cm/s and a Papp (PAMPA [4]; Papp (x 10^-6 cm/s) / [row 7]) of 3.05 ×10⁻⁶ cm/s. The Papp (PAMPA [4]; Papp (x 10^-6 cm/s) / [row 8]) was 2.93 ×10⁻⁶ cm/s, the Papp (PAMPA [4]; Papp (x 10^-6 cm/s) / [row 9]) was 3.14 ×10⁻⁶ cm/s and the Papp (PAMPA [4]; Papp (x 10^-6 cm/s) / [row 10]) was 3.2 ×10⁻⁶ cm/s. The % recovery ([5]; Well 1 / %R, Well 1) was 96% and 88%, the % recovery ([5]; Well 2 / %R, Well 2) was 91% and 90% and the % recovery ([5]; Well 4 / %R, Well 4) was 92% and 88%. The % recovery ([5]; Well 5 / %R, Well 5) was 87% and 85%, the Papp [6] was 3.32 ± 0.31 ×10⁻⁶ cm/s and the LogPapp [7] was -5.48 ± 0.04. The Δ % diffusion [7] was “↑10%”.
